These are literature values, as cited in patent US7405313B2, “Method for the synthesis of basic chromium carboxylates” (The Board of Trustees of the University of Alabama, priority 2006, dated 2008).

The subject of one data set is rats on regular diets. As to conditions: for effect on body mass, percentage lean or fat content, tissue size, or blood variables (fasting glucose, insulin, cholesterol, etc.): rats on regular diets.
A further data set relates to colorectal cancer. The conditions noted are these: rat.
The conditions of data set [1]: compared to other chromium-containing nutritional supplements.
Data set [2] has as its system healthy and model type 2 diabetic rats.
[3] abbreviates: healthy and model type 2 diabetic rats.

In the case of `[Cl][Cr]([Cl])[Cl]` [chromium chloride], in the data set with rats on regular diets, the “effect on body mass, percentage lean or fat content, tissue size, or blood variables (fasting glucose, insulin, cholesterol, etc.)” value is reported as “no effect”.
As to “chromium(III) tris(picolinate) [Cr(pic)3]”, the “effect on body mass, percentage lean or fat content, tissue size, or blood variables (fasting glucose, insulin, cholesterol, etc.)” value in the data set on rats on regular diets is “no effect”. In the data set on rats on regular diets (rats, amounts up to 1500 μg/kg diet for up to 24 weeks), the acute toxic effects result is “no acute toxic effects”.
Consider `CCC(=O)[O-].CCC(=O)[O-].CCC(=O)[O-].CCC(=O)[O-].CCC(=O)[O-].CCC(=O)[O-].O.O.O.[Cr+3].[Cr+3].[Cr+3].[O-2]` [Complex 1, [Cr3O(O2CCH2CH3)6(H2O)3]^+], for which the dissolution in water entry is “dissolves in water very rapidly”. In addition, the “onset of colorectal cancer” value in the data set on colorectal cancer was “reduce the onset of colorectal cancer”. Moreover, the absorption result in data set [1] was “absorbed very rapidly and very efficiently”. In addition, in data set [2] (diabetes models), the glycated hemoglobin result is “reduce glycated hemoglobin”. Further, in data set [2] (setting [3]), the “blood plasma cholesterol and triglycerides levels” value is “improve blood plasma cholesterol and triglycerides levels”; the insulin sensitivity result is reported as “increase insulin sensitivity”.
